Activity calls are given as the source filed them. No cut-off for these calls is given here.
Key:
[1] = Cytotoxicity against neonatal Sprague-Dawley rat cardiomyocyte assessed as reduction in ANP expression incubated for 48 hrs by ELISA assay; format: toxicity, cell-based, Cardiac muscle cell; details: neonatal rat cardiomyocytes
Cardiac muscle cell [2] = experiment: Anticardiac hypertrophic activity in phenylephrine-induced hypertrophy in neonatal Sprague-Dawley rat cardiomyocyte assessed as decrease in NPPB mRNA expression at 5 to 50 uM preincubated for 12 hrs followed by phenylephrine stimulation and measured after 48 hrs by qRT-PCR analysis; format: functional, cell-based; details: dose 5-50 µM, time 60.0 hrs
Cardiac muscle cell [3] = experiment: Anticardiac hypertrophic activity in phenylephrine-induced hypertrophy in neonatal Sprague-Dawley rat cardiomyocyte assessed as decrease in NPPA mRNA expression at 5 to 50 uM preincubated for 12 hrs followed by phenylephrine stimulation and measured after 48 hrs by qRT-PCR analysis; format: functional, cell-based; details: dose 5-50 µM, time 60.0 hrs
Cardiac muscle cell [4] = experiment: Anticardiac hypertrophic activity in phenylephrine-induced hypertrophy in neonatal Sprague-Dawley rat cardiomyocyte assessed as decrease in ANP protein expression at 5 to 50 uM preincubated for 12 hrs followed by phenylephrine stimulation and measured after 48 hrs by Western blot analysis; format: functional, cell-based; details: dose 5-50 µM, time 60.0 hrs

Structure (SMILES): C=C[C@@]12C=C(C)C(=O)C=C1[C@]1(C)CC[C@@H](O)C(C)(C)[C@H]1CC2
- IC50 at 48 h [1]: 41.8 µM
- Activity (Cardiac muscle cell [2]): Dose-Dependent Effect
- Activity (Cardiac muscle cell [3]): Dose-Dependent Effect
- Activity (Cardiac muscle cell [4]): Active

Structure (SMILES): COC(=O)c1cc2c(cc1OC)[C@]1(C)CCC(=O)C(C)(C)C1=C(O)C2=O
- IC50 at 48 h [1]: 52.3 µM
- Activity (Cardiac muscle cell [2]): Dose-Dependent Effect
- Activity (Cardiac muscle cell [3]): Dose-Dependent Effect
- Activity (Cardiac muscle cell [4]): Active

Source: ChEMBL document CHEMBL5316359, “Strophioblachins A-K, Structurally Intriguing Diterpenoids from Strophioblachia fimbricalyx with Potential Anticardiac Hypertrophic Inhibitory Activity” (J Nat Prod, 2023)
